Source: PubChem BioAssay AID1919008 (Molecular Pharmacology Branch, DTP, NCI, 2023)

Tested on: DMS-114 complex spheroids with HUVEC/MSC, growth % test/control
Assay: Anticancer human tumor DMS-114 cell line growth inhibition [AhR];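 further: spheroids exposed to agents for 7 days before readout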;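 on viability, T/C: 100% = DMSO vehicle control wells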
Conditions: for IC50: curve of first compound; for viability, T/C: stronger effect = lower value
Procedure, shortened: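 Agents were dosed in half-log steps down from roughly clinical Cmax, or from 10 microM where Cmax was unknown, alone and with AhR antagonists. Read-out: percent test/control growth of tumor spheroids containing HUVEC and MSC stromal cells.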

[1] = second compound 0.1 µM, first compound 0.0316 µM
[2] = second compound 0.1 µM, first compound 0.1 µM
[3] = second compound 0.1 µM, first compound 0.316 µM
[4] = second compound 0.1 µM, first compound 1 µM
[5] = second compound 0.1 µM, first compound 3.16 µM
[6] = second compound 0.1 µM, first compound 10 µM
[7] = second compound 0.316 µM, first compound 0.0316 µM
[8] = second compound 0.316 µM, first compound 0.1 µM
[9] = second compound 0.316 µM, first compound 0.316 µM
[10] = second compound 0.316 µM, first compound 1 µM
[11] = second compound 0.316 µM, first compound 3.16 µM
[12] = second compound 0.316 µM, first compound 10 µM
[13] = second compound 1 µM, first compound 0.0316 µM
[14] = second compound 1 µM, first compound 0.1 µM
[15] = second compound 1 µM, first compound 0.316 µM
[16] = second compound 1 µM, first compound 1 µM
[17] = second compound 1 µM, first compound 3.16 µM
[18] = second compound 1 µM, first compound 10 µM
[19] = second compound 3.16 µM, first compound 0.0316 µM
[20] = second compound 3.16 µM, first compound 0.1 µM
[21] = second compound 3.16 µM, first compound 0.316 µM
[22] = second compound 3.16 µM, first compound 1 µM
[23] = second compound 3.16 µM, first compound 3.16 µM
[24] = second compound 3.16 µM, first compound 10 µM
[25] = second compound 10 µM, first compound 0.0316 µM
[26] = second compound 10 µM, first compound 0.1 µM
[27] = second compound 10 µM, first compound 0.316 µM
[28] = second compound 10 µM, first compound 1 µM
[29] = second compound 10 µM, first compound 3.16 µM
[30] = second compound 10 µM, first compound 10 µM

SMILES: CC(C)CC(NC(=O)C(Cc1ccccc1)NC(=O)c1cnccn1)B(O)O (stereo not given) + Cc1cncc(-c2nc(NCCc3c[nH]c4ccccc34)c3ncn(C(C)C)c3n2)c1
- IC50 (second compound 0.1 µM): 0.00545 µM
- IC50 (second compound 0.316 µM): 0.00521 µM
- IC50 (second compound 1 µM): 0.00538 µM
- IC50 (second compound 3.16 µM): 0.00467 µM
- IC50 (second compound 10 µM): < 0.000949 µM
- viability, T/C (second compound 0.1 µM, first compound 0.000949 µM): 113%
- viability, T/C (second compound 0.1 µM, first compound 0.003 µM): 102%
- viability, T/C (second compound 0.1 µM, first compound 0.00949 µM): 2.1%
- viability, T/C (second compound 0.1 µM, first compound 0.03 µM): 0.04%
- viability, T/C (second compound 0.1 µM, first compound 0.0949 µM): 0.04%
- viability, T/C (second compound 0.1 µM, first compound 0.3 µM): 0.16%
- viability, T/C (second compound 0.316 µM, first compound 0.000949 µM): 102%
- viability, T/C (second compound 0.316 µM, first compound 0.003 µM): 94.3%
- viability, T/C (second compound 0.316 µM, first compound 0.00949 µM): 1.97%
- viability, T/C (second compound 0.316 µM, first compound 0.03 µM): 0.04%
- viability, T/C (second compound 0.316 µM, first compound 0.0949 µM): 0.03%
- viability, T/C (second compound 0.316 µM, first compound 0.3 µM): 0.15%
- viability, T/C (second compound 1 µM, first compound 0.000949 µM): 101%
- viability, T/C (second compound 1 µM, first compound 0.003 µM): 99.7%
- viability, T/C (second compound 1 µM, first compound 0.00949 µM): 1.76%
- viability, T/C (second compound 1 µM, first compound 0.03 µM): 0.45%
- viability, T/C (second compound 1 µM, first compound 0.0949 µM): 0.02%
- viability, T/C (second compound 1 µM, first compound 0.3 µM): 0.26%
- viability, T/C (second compound 3.16 µM, first compound 0.000949 µM): 93.8%
- viability, T/C (second compound 3.16 µM, first compound 0.003 µM): 80.7%
- viability, T/C (second compound 3.16 µM, first compound 0.00949 µM): 0.87%
- viability, T/C (second compound 3.16 µM, first compound 0.03 µM): 0.04%
- viability, T/C (second compound 3.16 µM, first compound 0.0949 µM): 0.04%
- viability, T/C (second compound 3.16 µM, first compound 0.3 µM): 0.18%
- viability, T/C (second compound 10 µM, first compound 0.000949 µM): 37.7%
- viability, T/C (second compound 10 µM, first compound 0.003 µM): 28.9%
- viability, T/C (second compound 10 µM, first compound 0.00949 µM): 0.42%
- viability, T/C (second compound 10 µM, first compound 0.03 µM): 0.21%
- viability, T/C (second compound 10 µM, first compound 0.0949 µM): 0.21%
- viability, T/C (second compound 10 µM, first compound 0.3 µM): 0.3%

SMILES: COc1cc(Nc2ncc3c(n2)-c2ccc(Cl)cc2C(c2c(F)cccc2OC)=NC3)ccc1C(=O)O + Cc1cncc(-c2nc(NCCc3c[nH]c4ccccc34)c3ncn(C(C)C)c3n2)c1
- IC50 (second compound 0.1 µM): < 0.0316 µM
- IC50 (second compound 0.316 µM): < 0.0316 µM
- IC50 (second compound 1 µM): < 0.0316 µM
- IC50 (second compound 3.16 µM): < 0.0316 µM
- IC50 (second compound 10 µM): < 0.0316 µM
- viability, T/C [1]: 34.3%
- viability, T/C [2]: 23.1%
- viability, T/C [3]: 44.3%
- viability, T/C [4]: 53.2%
- viability, T/C [5]: 65.4%
- viability, T/C [6]: 72.5%
- viability, T/C [7]: 28.4%
- viability, T/C [8]: 22.3%
- viability, T/C [9]: 40.9%
- viability, T/C [10]: 62.1%
- viability, T/C [11]: 61.6%
- viability, T/C [12]: 64.6%
- viability, T/C [13]: 30.1%
- viability, T/C [14]: 21.3%
- viability, T/C [15]: 41.7%
- viability, T/C [16]: 66%
- viability, T/C [17]: 61.7%
- viability, T/C [18]: 70.5%
- viability, T/C [19]: 24.5%
- viability, T/C [20]: 14.9%
- viability, T/C [21]: 36.3%
- viability, T/C [22]: 57.2%
- viability, T/C [23]: 69.8%
- viability, T/C [24]: 63%
- viability, T/C [25]: 16.4%
- viability, T/C [26]: 8.12%
- viability, T/C [27]: 19%
- viability, T/C [28]: 34.3%
- viability, T/C [29]: 32.4%
- viability, T/C [30]: 38.4%

SMILES: Cn1ncnc1C1c2n[nH]c(=O)c3cc(F)cc(c23)NC1c1ccc(F)cc1 (stereo not given) + Cc1cncc(-c2nc(NCCc3c[nH]c4ccccc34)c3ncn(C(C)C)c3n2)c1
- IC50 (second compound 0.1 µM): > 0.1 µM
- IC50 (second compound 0.316 µM): > 0.1 µM
- IC50 (second compound 1 µM): > 0.1 µM
- IC50 (second compound 3.16 µM): > 0.1 µM
- IC50 (second compound 10 µM): < 0.000316 µM
- viability, T/C (second compound 0.1 µM, first compound 0.000316 µM): 103%
- viability, T/C (second compound 0.1 µM, first compound 0.001 µM): 93.9%
- viability, T/C (second compound 0.1 µM, first compound 0.00316 µM): 100%
- viability, T/C (second compound 0.1 µM, first compound 0.01 µM): 105%
- viability, T/C [1]: 98.2%
- viability, T/C [2]: 75.5%
- viability, T/C (second compound 0.316 µM, first compound 0.000316 µM): 87.5%
- viability, T/C (second compound 0.316 µM, first compound 0.001 µM): 89.6%
- viability, T/C (second compound 0.316 µM, first compound 0.00316 µM): 88.1%
- viability, T/C (second compound 0.316 µM, first compound 0.01 µM): 87.1%
- viability, T/C [7]: 84.7%
- viability, T/C [8]: 80.2%
- viability, T/C (second compound 1 µM, first compound 0.000316 µM): 94.1%
- viability, T/C (second compound 1 µM, first compound 0.001 µM): 99%
- viability, T/C (second compound 1 µM, first compound 0.00316 µM): 96.8%
- viability, T/C (second compound 1 µM, first compound 0.01 µM): 93.6%
- viability, T/C [13]: 93.3%
- viability, T/C [14]: 81.3%
- viability, T/C (second compound 3.16 µM, first compound 0.000316 µM): 85.4%
- viability, T/C (second compound 3.16 µM, first compound 0.001 µM): 95.4%
- viability, T/C (second compound 3.16 µM, first compound 0.00316 µM): 89.3%
- viability, T/C (second compound 3.16 µM, first compound 0.01 µM): 77.3%
- viability, T/C [19]: 79.2%
- viability, T/C [20]: 74.9%
- viability, T/C (second compound 10 µM, first compound 0.000316 µM): 47.6%
- viability, T/C (second compound 10 µM, first compound 0.001 µM): 50.7%
- viability, T/C (second compound 10 µM, first compound 0.00316 µM): 42.7%
- viability, T/C (second compound 10 µM, first compound 0.01 µM): 41.6%
- viability, T/C [25]: 37.6%
- viability, T/C [26]: 45.2%

SMILES: NS(=O)(=O)OCC1CC(n2ccc3c(NC4CCc5ccccc54)ncnc32)CC1O (stereo not given) + Cc1cncc(-c2nc(NCCc3c[nH]c4ccccc34)c3ncn(C(C)C)c3n2)c1
- IC50 (second compound 0.1 µM): 0.0503 µM
- IC50 (second compound 0.316 µM): 0.0458 µM
- IC50 (second compound 1 µM): 0.042 µM
- IC50 (second compound 3.16 µM): 0.0405 µM
- IC50 (second compound 10 µM): < 0.0316 µM
- viability, T/C [1]: 59.4%
- viability, T/C [2]: 36%
- viability, T/C [3]: 17.1%
- viability, T/C [4]: 7.31%
- viability, T/C [5]: 5.19%
- viability, T/C [6]: 4.45%
- viability, T/C [7]: 56.9%
- viability, T/C [8]: 35.4%
- viability, T/C [9]: 16.1%
- viability, T/C [10]: 6.55%
- viability, T/C [11]: 5.26%
- viability, T/C [12]: 3.74%
- viability, T/C [13]: 55%
- viability, T/C [14]: 34.7%
- viability, T/C [15]: 17.6%
- viability, T/C [16]: 6.95%
- viability, T/C [17]: 4.06%
- viability, T/C [18]: 4.6%
- viability, T/C [19]: 54.9%
- viability, T/C [20]: 32.2%
- viability, T/C [21]: 15.8%
- viability, T/C [22]: 4.55%
- viability, T/C [23]: 4.39%
- viability, T/C [24]: 2.86%
- viability, T/C [25]: 42.2%
- viability, T/C [26]: 24.6%
- viability, T/C [27]: 12.2%
- viability, T/C [28]: 3.49%
- viability, T/C [29]: 2.11%
- viability, T/C [30]: 1.61%

SMILES: O=C(C=Cc1cccc(S(=O)(=O)Nc2ccccc2)c1)NO + Cc1cncc(-c2nc(NCCc3c[nH]c4ccccc34)c3ncn(C(C)C)c3n2)c1
- IC50 (second compound 0.1 µM): 0.451 µM
- IC50 (second compound 0.316 µM): 0.402 µM
- IC50 (second compound 1 µM): 0.429 µM
- IC50 (second compound 3.16 µM): 0.355 µM
- IC50 (second compound 10 µM): < 0.0316 µM
- viability, T/C [1]: 100%
- viability, T/C [2]: 91.9%
- viability, T/C [3]: 59.5%
- viability, T/C [4]: 27.5%
- viability, T/C [5]: 11.7%
- viability, T/C [6]: 9.54%
- viability, T/C [7]: 84.3%
- viability, T/C [8]: 77.7%
- viability, T/C [9]: 55.4%
- viability, T/C [10]: 28.3%
- viability, T/C [11]: 10.2%
- viability, T/C [12]: 9.73%
- viability, T/C [13]: 90.1%
- viability, T/C [14]: 80%
- viability, T/C [15]: 59.2%
- viability, T/C [16]: 26.9%
- viability, T/C [17]: 10.7%
- viability, T/C [18]: 9.6%
- viability, T/C [19]: 78.8%
- viability, T/C [20]: 75.5%
- viability, T/C [21]: 52.8%
- viability, T/C [22]: 21.3%
- viability, T/C [23]: 8.43%
- viability, T/C [24]: 7.76%
- viability, T/C [25]: 46.9%
- viability, T/C [26]: 34%
- viability, T/C [27]: 20.1%
- viability, T/C [28]: 9.92%
- viability, T/C [29]: 4.09%
- viability, T/C [30]: 4.15%
